{
  "source": "paper PMC11252418",
  "about": "“Specific glycine-dependent enzyme motion determines the potency of conformation selective inhibitors of threonyl-tRNA synthetase” (Communications Biology, 2024)",
  "key": {"EcThrRS_G463A [1]": {"target": "T1, EcThrRS_G463A (Escherichia coli, UniProt P0A8M3, G463A)", "T1 construct": "The E. coli ThrRS (residues 242-642, Supplementary Note 1) wild type; 6xHis (C); made in house; host or cells: E. coli BL21 (DE3)", "T1 sequence (P0A8M3 242-642 G463A)": "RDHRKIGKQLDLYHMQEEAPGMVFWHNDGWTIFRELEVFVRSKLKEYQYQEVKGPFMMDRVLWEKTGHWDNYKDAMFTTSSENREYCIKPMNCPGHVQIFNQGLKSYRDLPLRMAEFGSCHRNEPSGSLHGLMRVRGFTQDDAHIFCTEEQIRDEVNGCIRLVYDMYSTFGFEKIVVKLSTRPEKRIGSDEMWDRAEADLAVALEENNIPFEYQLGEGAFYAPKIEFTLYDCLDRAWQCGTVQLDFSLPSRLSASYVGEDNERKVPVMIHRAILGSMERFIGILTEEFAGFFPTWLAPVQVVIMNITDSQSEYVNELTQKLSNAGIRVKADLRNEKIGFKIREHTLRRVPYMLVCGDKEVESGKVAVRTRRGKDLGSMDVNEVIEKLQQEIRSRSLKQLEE", "assay": "Thermal shift assay (TSA)", "type": "binding", "protocol": "(§1) The EcThrRS_WT and L489M/G463S/G463S_Q484A/G463A/A316N mutant proteins, ObaO_WT and ObaO_S464G mutant proteins were prepared at 2 μM in buffer containing 25 mM Tris-HCl pH 7.5, 200 mM NaCl, and 20 μM OB (GlpBio, US) or BN (GlpBio, US) or ddH2O in equal volumes since the compounds were diluted with ddH2O to 1 mM as stocks. […] SYPRO orange dye (Sigma, USA) was diluted in assay buffer containing 25 mM Tris-HCl pH 7.5 and 200 mM NaCl to a 40× concentration, and was added to the mixture to a final 4× concentration. Aliquots (20 μL) were added to a 96-well PCR plate. After complete mixing, the final solutions were heated from 25 to 95 °C at a rate of 0.015 °C/s, and fluorescence signals were monitored by QuantStudio 3 (Applied Biosystems by Thermo Fisher Scientific, USA). The melting temperature (Tm) was calculated through a previously established method[56],[57]."}, "EcThrRS_G463S [2]": {"target": "T2, EcThrRS_G463S (Escherichia coli, UniProt P0A8M3, G463S)", "T2 construct": "The E. coli ThrRS (residues 242-642, Supplementary Note 1) wild type; 6xHis (C); made in house; host or cells: E. coli BL21 (DE3)", "T2 sequence (P0A8M3 242-642 G463S)": "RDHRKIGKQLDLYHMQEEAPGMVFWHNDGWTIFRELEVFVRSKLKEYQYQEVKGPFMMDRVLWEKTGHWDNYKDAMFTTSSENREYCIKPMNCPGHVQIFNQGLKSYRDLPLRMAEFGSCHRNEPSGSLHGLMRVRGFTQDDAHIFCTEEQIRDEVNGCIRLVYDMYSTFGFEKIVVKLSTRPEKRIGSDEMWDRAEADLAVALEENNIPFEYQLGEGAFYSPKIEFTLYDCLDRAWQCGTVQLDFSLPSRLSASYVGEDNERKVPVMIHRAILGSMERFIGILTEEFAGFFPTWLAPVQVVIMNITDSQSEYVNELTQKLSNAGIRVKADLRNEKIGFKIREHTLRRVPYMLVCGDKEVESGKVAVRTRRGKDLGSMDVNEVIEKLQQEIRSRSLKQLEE", "assay": "Thermal shift assay (TSA)", "type": "binding", "protocol": "as §1"}, "EcThrRS_G463S [3]": {"target": "T2, EcThrRS_G463S", "assay": "ATP hydrolysis assay", "type": "biochemical", "conditions": "BN, replicates, sheet Fig.7d"}, "EcThrRS_WT": {"target": "T3, EcThrRS_WT (Escherichia coli, UniProt P0A8M3)", "T3 construct": "The E. coli ThrRS (residues 242-642, Supplementary Note 1) wild type; 6xHis (C); made in house; host or cells: E. coli BL21 (DE3)", "T3 sequence (P0A8M3 242-642)": "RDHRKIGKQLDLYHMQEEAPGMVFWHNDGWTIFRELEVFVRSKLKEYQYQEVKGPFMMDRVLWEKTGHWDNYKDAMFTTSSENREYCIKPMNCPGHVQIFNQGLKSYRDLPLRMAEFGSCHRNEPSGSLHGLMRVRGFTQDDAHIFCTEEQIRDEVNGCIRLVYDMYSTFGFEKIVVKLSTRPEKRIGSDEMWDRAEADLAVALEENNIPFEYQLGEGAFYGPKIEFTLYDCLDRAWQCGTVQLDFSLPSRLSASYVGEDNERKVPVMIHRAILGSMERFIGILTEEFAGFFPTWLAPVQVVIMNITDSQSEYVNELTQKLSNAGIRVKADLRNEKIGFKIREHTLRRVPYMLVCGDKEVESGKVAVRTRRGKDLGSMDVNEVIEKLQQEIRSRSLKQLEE", "assay": "ATP hydrolysis assay", "type": "biochemical", "conditions": "for ATP hydrolysis activity, inhibitory curve data point: BN, replicates, sheet Fig.7d", "protocol": "(§2) 200 nM EcThrRS wide type and mutants, ObaO and ObaO_S464G mutant were incubated with serially diluted OB (0 to 10 μM for EcThrRS, 0 to 40 μM for ObaO) in a buffer containing 25 mM HEPES pH 7.5, 50 mM NaCl, 40 mM MgCl2, 30 mM KCl, 0.01 mg/mL bovine serum albumin (BSA), and 0.004% Tween-20 at 37 °C for 4 h and then mixed 1:1 with a substrate mixture containing 4 μM ATP, 40 μM L-threonine, 25 mM HEPES pH 7.5, 50 mM NaCl, 40 mM MgCl2, 30 mM KCl, 0.01 mg/mL BSA, and 0.004% Tween-20. The ATP hydrolysis reaction was performed at 37 °C for 4 h.\n(§3) After incubation, the detection solution from the Kinase-Glo® luminescent kit (Promega, USA) was added to the reaction system at a 1:1 ratio, and the mixture was gently shaken for 10 min. The chemiluminescence signal was measured using a microplate reader (Tecan, USA). All experiments were performed in four replicates. The data were processed using GraphPad Prism 8 software."}, "EcThrRS_G463A [4]": {"target": "T1, EcThrRS_G463A", "assay": "ATP hydrolysis assay", "type": "biochemical", "conditions": "for ATP hydrolysis activity, inhibitory curve data point: BN, replicates, sheet Fig.7d", "protocol": "as §2, §3"}, "EcThrRS_G463S [5]": {"target": "T2, EcThrRS_G463S", "assay": "ATP hydrolysis assay", "type": "biochemical", "protocol": "as §2, §3"}, "[6]": {"conditions": "2 μM protein, 20 μM compound, mean n = 4, read-out: ΔTm (increase of Tm)"}},
  "note": "Where “and” joins values, the source holds several entries; their conditions need not be identical. Equal entries are not always repeated. Where two headings read alike, the source gives them in different places.",
  "data": [
    {"smiles": "C[C@@H]1C[C@H](C)C[C@H](C)[C@@H](O)CC(=O)O[C@H]([C@@H]2CCC[C@H]2C(=O)O)C/C=C/C=C(/C#N)[C@H](O)[C@@H](C)C1", "note": "[BN, borrelidin]", "values": [
      {"measurement": "ΔTm at 20 µM", "setting": "EcThrRS_G463A [1]; [6]", "value": 19.1, "unit": "°C"},
      {"measurement": "ΔTm at 20 µM", "setting": "EcThrRS_G463A [1]; source data sheet Fig.7c, ThrRS_G463A, read-out: ΔTm, single replicates", "value": 19.1, "unit": "°C"},
      {"measurement": "ΔTm at 20 µM", "setting": "EcThrRS_G463S [2]; [6]", "value": 17.4, "unit": "°C"},
      {"measurement": "ΔTm at 20 µM", "setting": "EcThrRS_G463S [2]; source data sheet Fig.7c, ThrRS_G463S, read-out: ΔTm, single replicates", "value": 17.3, "unit": "°C"},
      {"measurement": "ATP hydrolysis activity, inhibitory curve data point", "setting": "EcThrRS_G463S [3]; Log10 Conc. 1.477, G463S", "value": "98.112 and 97.245 and 94.519 and 96.966"},
      {"measurement": "ATP hydrolysis activity, inhibitory curve data point", "setting": "EcThrRS_G463S [3]; Log10 Conc. 2.000, G463S", "value": "96.048 and 91.632 and 90.284 and 92.020"},
      {"measurement": "ATP hydrolysis activity, inhibitory curve data point", "setting": "EcThrRS_G463S [3]; Log10 Conc. 2.477, G463S", "value": "91.563 and 88.959 and 88.970 and 89.661"},
      {"measurement": "ATP hydrolysis activity, inhibitory curve data point", "setting": "EcThrRS_G463S [3]; Log10 Conc. 3.000, G463S", "value": "84.928 and 77.254 and 80.440 and 82.267"},
      {"measurement": "ATP hydrolysis activity, inhibitory curve data point", "setting": "EcThrRS_G463S [3]; Log10 Conc. 4.000, G463S", "value": "53.455 and 58.497 and 57.343 and 60.957"},
      {"measurement": "ATP hydrolysis activity, inhibitory curve data point", "setting": "EcThrRS_WT; Log10 Conc. 1.477, WT", "value": "101.322 and 78.096 and 79.643 and 84.982"},
      {"measurement": "ATP hydrolysis activity, inhibitory curve data point", "setting": "EcThrRS_WT; Log10 Conc. 2.000, WT", "value": "101.576 and 82.194 and 100.286 and 100.117"},
      {"measurement": "ATP hydrolysis activity, inhibitory curve data point", "setting": "EcThrRS_WT; Log10 Conc. 2.477, WT", "value": "72.956 and 78.844 and 97.078 and 88.856"},
      {"measurement": "ATP hydrolysis activity, inhibitory curve data point", "setting": "EcThrRS_WT; Log10 Conc. 3.000, WT", "value": "-7.239 and -12.609 and 12.089 and 13.133"},
      {"measurement": "ATP hydrolysis activity, inhibitory curve data point", "setting": "EcThrRS_WT; Log10 Conc. 3.477, WT", "value": "-29.715 and 1.779 and -2.712 and 18.045"},
      {"measurement": "ATP hydrolysis activity, inhibitory curve data point", "setting": "EcThrRS_WT; Log10 Conc. 4.000, WT", "value": "-14.823 and -17.346 and -12.025 and -9.555"},
      {"measurement": "IC50", "setting": "EcThrRS_WT; in the presence of 2 μM ATP and 20 μM L-Thr", "value": 559, "unit": "nM"},
      {"measurement": "decrease of inhibitory effect vs EcThrRS_WT", "setting": "EcThrRS_G463A [4]; 2 μM ATP and 20 μM L-Thr", "value": "more than 20 fold"},
      {"measurement": "ATP hydrolysis activity, inhibitory curve data point", "setting": "EcThrRS_G463A [4]; Log10 Conc. 1.477, G463A", "value": "95.000 and 86.999 and 114.196 and 92.149"},
      {"measurement": "ATP hydrolysis activity, inhibitory curve data point", "setting": "EcThrRS_G463A [4]; Log10 Conc. 2.000, G463A", "value": "87.423 and 89.051 and 94.722 and 94.776"},
      {"measurement": "ATP hydrolysis activity, inhibitory curve data point", "setting": "EcThrRS_G463A [4]; Log10 Conc. 2.477, G463A", "value": "87.400 and 82.253 and 93.320 and 93.112"},
      {"measurement": "ATP hydrolysis activity, inhibitory curve data point", "setting": "EcThrRS_G463A [4]; Log10 Conc. 3.000, G463A", "value": "81.982 and 81.596 and 85.557 and 86.320"},
      {"measurement": "ATP hydrolysis activity, inhibitory curve data point", "setting": "EcThrRS_G463A [4]; Log10 Conc. 3.477, G463A", "value": "63.653 and 64.234 and 69.634 and 68.650"},
      {"measurement": "ATP hydrolysis activity, inhibitory curve data point", "setting": "EcThrRS_G463A [4]; Log10 Conc. 4.000, G463A", "value": "68.712 and 73.186 and 66.040 and 70.648"},
      {"measurement": "decrease of inhibitory effect vs EcThrRS_WT", "setting": "EcThrRS_G463S [5]; 2 μM ATP and 20 μM L-Thr", "value": "more than 20 fold"},
      {"measurement": "ATP hydrolysis activity, inhibitory curve data point", "setting": "EcThrRS_G463S [5]; BN, Log10 Conc. 3.477, G463S, replicates, sheet Fig.7d", "value": "72.021 and 67.252 and 61.642 and 63.732"}
    ]}
  ]
}
